Values of other authors as cited in patent US12239625B2, “Modified release gamma-hydroxybutyrate formulations having improved pharmacokinetics” (Flamel Ireland Limited, priority 2016, dated 2025).
Read-outs that look alike come from different tables or passages of the source.

Tests used:
rats [1] = system: rats
rat [2] = conditions: in vivo
patients with narcolepsy = conditions: estimated dose of 150 g
CYP2C9 = CYP2C9 (Homo sapiens, UniProt P11712); conditions: up to 3 mM (378 mcg/mL)
male and female rats = conditions: oral 150, 350, or 1,000 mg/kg/day prior to and throughout mating
CYP2C19 = CYP2C19 (Homo sapiens, UniProt P33261); conditions: up to 3 mM (378 mcg/mL)
Sequence of CYP2C19 (P33261 whole entry): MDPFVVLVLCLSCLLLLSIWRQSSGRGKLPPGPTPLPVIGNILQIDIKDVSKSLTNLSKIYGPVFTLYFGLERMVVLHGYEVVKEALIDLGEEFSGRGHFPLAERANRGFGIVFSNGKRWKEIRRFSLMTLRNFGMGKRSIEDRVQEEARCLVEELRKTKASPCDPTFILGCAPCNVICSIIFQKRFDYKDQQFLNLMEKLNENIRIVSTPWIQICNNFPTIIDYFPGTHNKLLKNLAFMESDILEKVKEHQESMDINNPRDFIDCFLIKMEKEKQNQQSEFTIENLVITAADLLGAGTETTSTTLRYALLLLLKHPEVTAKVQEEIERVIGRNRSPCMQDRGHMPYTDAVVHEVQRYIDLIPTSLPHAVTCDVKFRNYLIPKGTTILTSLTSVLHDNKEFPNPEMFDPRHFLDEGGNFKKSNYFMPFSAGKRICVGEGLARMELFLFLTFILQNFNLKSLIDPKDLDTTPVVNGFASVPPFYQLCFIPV

rats [3] = system: rats; remark: listed apart in the source
CYP2E1 = CYP2E1 (Homo sapiens, UniProt P05181); conditions: up to 3 mM (378 mcg/mL)
Sequence of CYP2E1 (P05181 whole entry): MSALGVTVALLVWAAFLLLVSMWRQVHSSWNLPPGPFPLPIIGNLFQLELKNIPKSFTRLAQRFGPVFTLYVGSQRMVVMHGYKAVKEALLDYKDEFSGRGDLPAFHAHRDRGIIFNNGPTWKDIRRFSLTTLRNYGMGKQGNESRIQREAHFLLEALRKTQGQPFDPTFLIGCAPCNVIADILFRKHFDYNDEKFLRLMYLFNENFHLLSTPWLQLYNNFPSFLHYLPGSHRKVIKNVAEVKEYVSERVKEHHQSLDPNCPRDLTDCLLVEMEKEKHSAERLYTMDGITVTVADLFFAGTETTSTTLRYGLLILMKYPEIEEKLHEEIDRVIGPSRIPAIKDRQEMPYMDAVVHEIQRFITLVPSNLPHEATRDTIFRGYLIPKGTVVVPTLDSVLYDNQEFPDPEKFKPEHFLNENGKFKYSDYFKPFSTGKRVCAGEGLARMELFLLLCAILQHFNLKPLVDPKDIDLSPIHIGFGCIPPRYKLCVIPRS

mammalian cells = conditions: in vitro
CYP1A2 = target: T1, CYP1A2 (Homo sapiens, UniProt P05177); conditions: up to 3 mM (378 mcg/mL)
T1 sequence (P05177 1-516): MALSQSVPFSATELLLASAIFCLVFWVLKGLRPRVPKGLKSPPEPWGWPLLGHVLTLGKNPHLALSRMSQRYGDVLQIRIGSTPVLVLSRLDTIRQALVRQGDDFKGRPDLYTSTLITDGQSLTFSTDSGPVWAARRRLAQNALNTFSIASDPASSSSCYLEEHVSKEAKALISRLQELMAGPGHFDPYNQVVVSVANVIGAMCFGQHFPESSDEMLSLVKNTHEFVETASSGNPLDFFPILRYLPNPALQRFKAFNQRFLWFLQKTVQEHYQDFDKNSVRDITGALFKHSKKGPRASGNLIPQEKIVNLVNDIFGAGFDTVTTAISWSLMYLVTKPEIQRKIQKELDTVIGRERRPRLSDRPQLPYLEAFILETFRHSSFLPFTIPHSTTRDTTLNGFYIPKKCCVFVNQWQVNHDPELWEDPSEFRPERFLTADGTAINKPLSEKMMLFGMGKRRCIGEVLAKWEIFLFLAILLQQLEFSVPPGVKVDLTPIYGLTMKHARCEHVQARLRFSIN

CYP2D6 = CYP2D6 (Homo sapiens, UniProt P10635); conditions: up to 3 mM (378 mcg/mL)
Sequence of CYP2D6 (P10635 whole entry): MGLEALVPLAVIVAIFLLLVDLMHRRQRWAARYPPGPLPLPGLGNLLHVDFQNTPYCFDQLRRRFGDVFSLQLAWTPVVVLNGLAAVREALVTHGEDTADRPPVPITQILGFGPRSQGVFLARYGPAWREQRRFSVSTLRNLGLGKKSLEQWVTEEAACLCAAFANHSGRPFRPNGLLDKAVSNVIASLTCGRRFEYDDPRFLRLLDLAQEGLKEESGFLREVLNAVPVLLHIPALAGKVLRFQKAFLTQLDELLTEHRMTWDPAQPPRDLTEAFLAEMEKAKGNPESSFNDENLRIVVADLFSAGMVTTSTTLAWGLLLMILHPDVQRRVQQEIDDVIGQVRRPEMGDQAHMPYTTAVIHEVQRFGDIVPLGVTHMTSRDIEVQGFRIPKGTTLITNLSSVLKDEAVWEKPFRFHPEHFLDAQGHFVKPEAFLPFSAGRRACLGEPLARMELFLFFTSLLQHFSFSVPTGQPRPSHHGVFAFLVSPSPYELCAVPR

CYP3A = conditions: up to 3 mM (378 mcg/mL)
[4] = single oral dose 25 mg/kg
bacterial gene mutation = conditions: in vitro
[5] = 6 g per day as two 3 g doses; ibuprofen 800 mg four times per day
rat [6] = conditions: 2-year study
mouse = conditions: 2-year study
plasma proteins = conditions: GHB concentrations 3 mcg/mL to 300 mcg/mL

Sequence of CYP2C9 (P11712 whole entry): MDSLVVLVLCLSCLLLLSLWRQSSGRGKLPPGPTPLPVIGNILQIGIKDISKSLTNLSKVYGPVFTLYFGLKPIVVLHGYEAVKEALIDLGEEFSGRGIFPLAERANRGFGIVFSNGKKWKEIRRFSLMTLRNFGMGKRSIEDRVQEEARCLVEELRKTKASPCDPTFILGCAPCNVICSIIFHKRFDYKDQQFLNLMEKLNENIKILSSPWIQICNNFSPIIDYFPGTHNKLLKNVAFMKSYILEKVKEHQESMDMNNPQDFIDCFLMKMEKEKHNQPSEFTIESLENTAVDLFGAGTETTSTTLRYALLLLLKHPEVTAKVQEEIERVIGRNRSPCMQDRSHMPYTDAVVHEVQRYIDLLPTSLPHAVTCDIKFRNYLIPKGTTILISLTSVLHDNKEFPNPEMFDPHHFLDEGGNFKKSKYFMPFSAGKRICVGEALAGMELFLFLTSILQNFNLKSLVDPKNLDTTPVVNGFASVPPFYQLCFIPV

For O=C([O-])CCCO.[Na+] [sodium oxybate, sodium 4-hydroxybutyrate], the Developmental toxicity (pregnant rats; oral 150, 350, or 1,000 mg/kg/day throughout organogenesis) is listed as “no clear evidence of developmental toxicity”, the “Highest dose tested as multiple of the MRHD (9 g per night) on mg/m2 basis” value (pregnant rats; rats) is listed as “approximately 1 times” and the Developmental toxicity (pregnant rabbits; oral 300, 600, or 1,200 mg/kg/day throughout organogenesis) is listed as “no clear evidence of developmental toxicity”. The “Highest dose tested as multiple of the MRHD (9 g per night) on mg/m2 basis” value (pregnant rabbits; rabbits) was roughly 3 times, the “Body weight gain and sexual maturation” value (rats [1]; at the highest dose tested (900 mg/kg/day)) was “Reduced body weight gain in males and females and delayed sexual maturation in males” and the Mortality (rats [1]; oral 0, 100, 300, or 900 mg/kg/day, postnatal days 21 through 90) was “mortality was observed at the two highest closes tested”. The Micronucleus (rat [2]) was “negative”, the Overdose case (patients with narcolepsy) was “unresponsive with brief periods of apnea” and the “Inhibition of CYP2C9 activity” value (CYP2C9) was “does not significantly inhibit”. The Effects on fertility (male and female rats) was “no adverse effects on fertility”, the “Inhibition of CYP2C19 activity” value (CYP2C19) was “does not significantly inhibit” and the Tumors (rats [3]; oral doses up to 1,000 mg/kg/day for 83 (males) or 104 (females) weeks) was “no increase in tumors”. For the same compound, the “Plasma exposure (AUC) at the highest dose tested as multiple of that in humans at the MRHD” value (rats [3]; rats) was 2 times, the “Gender differences in the pharmacokinetics of GHB” value (18 female and 18 male healthy adults, oral dose 4.5 g) was “no gender differences” and the “Inhibition of CYP2E1 activity” value (CYP2E1) was “does not significantly inhibit”. For the same compound, the Chromosomal aberration (mammalian cells) was “negative”, the “Inhibition of CYP1A2 activity” value (CYP1A2) was “does not significantly inhibit” and the “Inhibition of CYP2D6 activity” value (CYP2D6) was “does not significantly inhibit”. The “Inhibition of CYP3A activity” value (CYP3A) was “does not significantly inhibit”, the Mean elimination half-life ([4]; Class A) was 32 min and the Mean elimination half-life ([4]; Class C) was 59 min. For the same compound, the Mean elimination half-life ([4]; control patients) was 22 min, the Bacterial gene mutation (bacterial gene mutation) was “negative” and the “Systemic exposure to GHB on co-administration with ibuprofen” value [5] was “comparable systemic exposure to GHB”.

For O=C1CCCO1 [gamma-butyrolactone], the Carcinogenic activity (rat [6]) is given as “no clear evidence of carcinogenic activity” and the Carcinogenic activity (mouse) is given as “no clear evidence of carcinogenic activity”.

For O=C(O)CCCO [GHB, gamma-hydroxybutyrate], the “Bound to plasma proteins” value (plasma proteins) is listed as “less than 1%”, the “Excretion in human milk” value (after oral administration of sodium oxybate) is listed as “excreted in human milk” and the “Apparent volume of distribution” value (human, in vivo) is listed as 0.19 to 0.384 L/kg. The Elimination half-life (human, in vivo) was 30 to 60 min and the “Unchanged drug in human urine” value (within 6 to 8 hours after dosing) was “less than 5%”.
